Experimental data published in patent US20140235536A1, “INJECTABLE SOLUTION AT PH 7 COMPRISING AT LEAST ONE BASAL INSULIN THE ISOELECTRIC POINT OF WHICH IS COMPRISED IN 5.8 AND 8.5 AND AN ANIONIC COMPOUND BEARING CARBOXYLATE CHARGES AND HYDROPHOBIC RADICALS” (ADOCIA, priority 2013, published 2014).
Read-outs that look alike come from different tables or passages of the source.

How the values were obtained:
insulin glargine [1] = molecular target: T1, insulin glargine (Homo sapiens, UniProt P01308, INS54RR/N110G); experiment: Precipitation of hydrophobized anionic molecule/insulin glargine composition in PBS/BSA mixture simulating the subcutaneous medium (examples B13, B14); assay type: physicochemical; conditions: 1 ml composition (10 mg/ml molecule, 100 IU/ml insulin glargine) added to 2 ml PBS containing 20 mg/ml BSA
T1 construct: substitution of asparagine residue A21 with a glycine residue; elongation of the C-terminal of the B chain of human insulin with two arginine residues; purchased SANOFI-AVENTIS (Lantus®); ELI LILLY (Humalog®)
Protocol: 1 ml of the insulin glargine solution of example B4 is added to 2 ml of a solution of PBS (phosphate buffered saline) containing 20 mg/ml of BSA (bovine serum albumin). The PBS/BSA mixture simulates the composition of the subcutaneous medium.
Centrifugation at 4000 rpm is carried out in order to separate the precipitate from the supernatant. The insulin glargine is then assayed in the supernatant by reverse-phase liquid chromatography (RP-HPLC).
1 ml of hydrophobized anionic molecule AA1/insulin glargine solution prepared in example B6(a) is added to 2 ml of a solution of PBS containing 20 mg/ml of BSA. The PBS/BSA mixture simulates the composition of the subcutaneous medium.
(§1) Centrifugation at 4000 rpm is carried out in order to separate the precipitate from the supernatant. The insulin glargine is then assayed in the supernatant by RP-HPLC.
Solubilization and precipitation tests identical to those described in examples B6 and B14 were carried out with other hydrophobized anionic molecules at the same concentration of 10 mg/ml of hydrophobized anionic molecule for 100 IU/ml of insulin glargine solution.

insulin glargine [2] = molecular target: T1, insulin glargine; conditions: alone versus with the cyclodextrin, cited from earlier work
insulin glargine [3] = molecular target: T1, insulin glargine; experiment: Precipitation of hydrophobized anionic molecule/insulin glargine/prandial insulin compositions in PBS/BSA (examples B15-B17); assay type: physicochemical
Protocol: The PBS/BSA mixture simulates the composition of the subcutaneous medium.
as §1
This composition is added to 2 ml of PBS containing 20 mg/ml of BSA. The PBS/BSA mixture simulates the composition of the subcutaneous medium. […] Centrifugation at 4000 rpm is carried out in order to separate the precipitate from the supernatant. The insulin glargine is then assayed in the supernatant by RP-HPLC.

[4] = molecular target: insulin glargine and prandial insulin (Homo sapiens, UniProt P01308, INS54RR/N110G)
Protocol: 0.25 ml of the insulin glulisine solution of example B3 is added to 0.75 ml of the solution of hydrophobized anionic molecule AA1/insulin glargine prepared according to the protocol described in example B6(a), so as to form 1 ml of a composition at pH 7. […] This clear solution is filtered through a 0.22 μm filter and then placed at +4° C.
0.25 ml of the insulin lispro solution of example B2 is added to 0.75 ml of the solution of hydrophobized anionic molecule AA1/insulin glargine prepared according to the protocol described in example B6(a), so as to form 1 ml of a composition at pH 7. […] This clear solution is filtered through a 0.22 μm filter and then placed at +4° C.
0.25 ml of the insulin aspart solution of example B1 is added to 0.75 ml of the solution of hydrophobized anionic molecule AA1/insulin glargine prepared in example B6(a), so as to form 1 ml of a composition at pH 7. […] This clear solution is filtered through a 0.22 μm filter and then placed at +4° C.
0.4 ml of the insulin lispro solution of example B2 is added to 0.6 ml of the solution of hydrophobized anionic molecule AA1/insulin glargine prepared in example 86(a), so as to form 1 ml of a composition at pH 7. […] This clear solution is filtered through a 0.22 μm filter and then placed at +4° C.
0.6 ml of the insulin lispro solution of example B2 is added to 0.4 ml of the solution of hydrophobized anionic molecule AA1/insulin glargine prepared in example B6(a), so as to form 1 ml of a composition at pH 7. […] This clear solution is filtered through a 0.22 μm filter and then placed at +4° C.
Compositions are prepared by mixing 0.75 ml of the hydrophobized anionic molecule AA1/insulin glargine solution prepared according to the protocol of example B6(a) with 0.25 ml of a prandial insulin, so as to form 1 ml of hydrophobized anionic molecule AA1/insulin glargine/prandial insulin composition (containing 7.5 mg/ml of hydrophobized anionic molecule AA1, 75 IU/ml of insulin glargine and 25 IU/ml of prandial insulin).

[5] = background statement on marketed insulins; cited from earlier work
[6] = 7.5 mg/ml AA1, 75 IU/ml insulin glargine, 25 IU/ml prandial insulin, added to 2 ml PBS containing 20 mg/ml BSA
[7] = insulin glargine/insulin lispro 75/25 composition at pH 7, 1 ml added to 2 ml PBS containing 20 mg/ml BSA

T1 sequence (P01308 90-110 N110G limits assumed): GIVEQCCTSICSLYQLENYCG
T1 sequence (P01308 25-56 limits assumed, stated change not applied): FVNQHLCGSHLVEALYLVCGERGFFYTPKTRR

Row | Substance | Insulin glargine precipitation (insulin glargine [1]) | Insulin glargine precipitation (insulin glargine [3]; [7]) | further results
1 | Sodium Maltotriosemethylcarboxylate Functionalized with Cholesteryl Leucinate [AA1] | Yes |  | 
2 | sulfobutyl ether-β-cyclodextrin [SVE4-β-CYD] |  |  | solubility of insulin glargine (insulin glargine [2]; pH 7.4, phosphate buffer): 8 µM; solubility of insulin glargine (insulin glargine [2]; pH 9.5): 1250 µM
3 | Insulin glulisine (Apidra ®): commercial 100 IU/ml solution of insulin glulisine, fast-acting insulin analog (SANOFI-AVENTIS) [reference compound] |  |  | Insulin glargine precipitation (insulin glargine [3]; [6]): Yes
4 | Sodium Maltotriosemethylcarboxylate Functionalized with Dilauryl Aspartate [AA6] | Yes | Yes | 
5 | Sodium Maltotriosemethylcarboxylate Functionalized with 3,7-dimethyl-octanoyl Phenylalaninate [AA8] | Yes | Yes | 
6 | Sodium Maltotriosemethylcarboxylate Functionalized with Cholesteryl Leucinate [AA3] |  | Yes | 
7 | Insulin lispro (Humalog ®): commercial 100 IU/ml solution of insulin lispro, fast-acting insulin analog (ELI LILLY) [reference compound] |  |  | Insulin glargine precipitation (insulin glargine [3]; [6]): Yes; Solubilization of insulin glargine/prandial insulin 75/25 [4]: Yes
8 | Insulin aspart (NovoLog ®): commercial 100 IU/ml solution of insulin aspart, fast-acting insulin analog (NOVO NORDISK) [reference compound] |  |  | Insulin glargine precipitation (insulin glargine [3]; [6]): Yes; Solubilization of insulin glargine/prandial insulin 75/25 [4]: Yes
9 | Human insulin (ActRapid ®): commercial 100 IU/ml solution of human insulin (NOVO NORDISK) [reference compound] |  |  | Insulin glargine precipitation (insulin glargine [3]; [6]): Yes; Solubilization of insulin glargine/prandial insulin 75/25 [4]: Yes
10 | insulin glargine |  |  | solubility of insulin glargine (insulin glargine [2]; pH 7.4, phosphate buffer): 5 µM; solubility of insulin glargine (insulin glargine [2]; pH 9.5): 750 µM; duration of action / hypoglycemic effect [5]: 24 h
11 | Sodium Maltotriosemethylcarboxylate Functionalized with (±)-α-tocopheryl Leucinate [AA9] | Yes | Yes | 
12 | Sodium Maltopentaosemethylcarboxylate Functionalized with Cholesteryl Leucinate [AA4] | Yes | Yes | 
13 | Sodium Maltotriosemethylcarboxylate Functionalized with Cholesteryl 2-aminoethylcarbamate [AA7] | Yes | Yes | 
14 | Sodium Maltooctaosemethylcarboxylate Functionalized with Cholesteryl Leucinate [AA5] | Yes | Yes | 
